Each structure is given as a SMILES string. Values after ≈ are worked out from the molar mass of the structure shown. Structures can show the parent of a compound that is named as a salt.

Here are results for three compounds from publication PMC8277899, “A novel RyR1-selective inhibitor prevents and rescues sudden death in mouse models of malignant hyperthermia and heat stroke” (Nature Communications, 2021).

One series relates to RyR1 channel. The arrangement: method as in PMID 31299492. The following applies: HEK293 cell-based assay; read-out: IC50 for inhibiting the RyR1 channel; cited from earlier work.
Series [1] can be described thus: Thermodynamic solubility in solutions for injection. The following applies: 25 °C; for solubility at 48 h: thermodynamic from solid.
For series [2] the following is noted: cited from earlier work.

For the compound `CCn1cc(C(=O)O)c(=O)c2cc3c(cc21)OCO3` [oxolinic acid, reference compound], the IC50 in the series on RyR1 channel is 810 nM.
`CCCCCCCCn1cc(C(=O)O)c(=O)c2cc3c(cc21)OCO3` [Cpd1 sodium salt]: the solubility at 48 h in series [1] (5% glucose aqueous solution, saline or isotonic) came out at 351 ± 14 µg/mL; in series [1] (pure water, water), 1360 ± 220 µg/mL. For the same compound, the Solubility in series [1] (Normal saline (0.9% NaCl), 48 h) is 849 ± 58 (4) µg/mL.
In series [1] (normal saline (0.9% NaCl), saline or isotonic), `O=C1CN(/N=C/c2ccc(-c3ccc([N+](=O)[O-])cc3)o2)C(O)=N1` [dantrolene] came in with a solubility at 48 h of 25.7 ± 2.1 µg/mL (≈ 81.8 µM). The “plasma half-life (t1/2)” value in series [2] was 12 h. Further, in series [2] (in humans after intravenous injection), the plasma half-life was 10 to 12 h.

What is called IC50 is the concentration that gives 50% inhibition. Broadly, the solubility is the dissolved amount per volume that the medium holds. A higher solubility goes with much dissolved substance.
